Assay [1] addresses Heat shock protein HSP 90-alpha (Homo sapiens, UniProt P07900). It counts as functional, organism-based.
Assay [2] has as its target T1, Calpain-2 catalytic subunit (Sus scrofa, UniProt P43367).
T1 sequence (P43367 whole entry): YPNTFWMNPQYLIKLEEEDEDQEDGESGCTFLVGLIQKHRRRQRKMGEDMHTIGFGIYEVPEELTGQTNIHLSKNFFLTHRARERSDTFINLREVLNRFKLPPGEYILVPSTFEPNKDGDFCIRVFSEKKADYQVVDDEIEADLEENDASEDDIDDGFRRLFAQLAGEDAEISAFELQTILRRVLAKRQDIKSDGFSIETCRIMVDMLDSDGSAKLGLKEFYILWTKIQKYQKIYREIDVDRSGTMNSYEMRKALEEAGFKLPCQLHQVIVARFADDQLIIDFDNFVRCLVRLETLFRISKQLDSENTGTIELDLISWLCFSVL
Kind of assay: m-calpain protease blockers, concentration series – biochemical, fluorogenic peptide substrate, dose response (AID 1420). The format is functional.

For assay [3], the target named is Eukaryotic translation initiation factor 4E (Mus musculus, UniProt P63073). Kind of assay: blockers of eIF4G binding by eIF4E – biochemical, TR-FRET, dose response (AID 855).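 Also: potency for disrupting eIF4E binding to eIF4GI seen as loss of FRET.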 The format is functional.
Assay [4] is described as follows: CCR5-tropic HIV-1 fusion blockers – cell-based, CCR5-tropic Env, dose response (AID 2279). It counts as functional.
Assay [5] in a line: A cytotoxicity screen of small molecule inhibitors of the PhoP region in Salmonella typhi identified in the primary screen. [Related pubchem assays: 1850, 1864, 1985 ]. The format is functional.
In another assay the target is ORF 73 (Human herpesvirus 8, UniProt O40947). Kind of assay: KSHV LANA DNA-binding disruption – biochemical, fluorescence polarization, cherry-picked samples, dose response (AID 504725).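 Also: fluorescence polarization of a labeled DNA duplex reporting LANA DNA binding; potency is for inhibitors that block LANA binding to the DNA.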 Further details: species or system Human gammaherpesvirus 8. Background: In fluorescence polarisation assays a small probe gives low polarisation when free and higher when bound to something large.

For a further assay, the target named is NS3 (Hepatitis C virus, UniProt A3EZJ3). As to the kind of experiment: PubChem AID 2173. More on the design: species or system Hepacivirus hominis.
Assay [6] deals with T2, Voltage-gated N-type calcium channel alpha-1B subunit/Amyloid beta A4 precursor protein-binding family A member 1 (Homo sapiens, UniProt Q00975+Q02410). It counts as protein assay.
The nature of assay [7]: antiviral protection against BTV-induced cell death – arbovirus, BSR cells, confirmation (AID 1250).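 Also: protection from viral cytopathic effect measured as cell viability by ATP luminescence.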 It counts as functional.
Assay [8] concerns the target T2, Voltage-gated N-type calcium channel alpha-1B subunit/Amyloid beta A4 precursor protein-binding family A member 1. It counts as protein assay. This is another data set of the same source.
For assay [9], the target named is Induced myeloid leukemia cell differentiation protein Mcl-1 (Homo sapiens, UniProt Q07820). It counts as functional.
The next assay deals with Cytochrome P450 2C9 (Homo sapiens, UniProt P11712). Particulars: Potency.
In another assay the target is Mucolipin-3 (Homo sapiens, UniProt Q8TDD5). As to the kind of experiment: Dose response cell-based high-throughput screening assay for agonists of the transient receptor potential channel ML3 (TRPML3). [Related pubchem assays: 1526, 1424, 1448 ]. It counts as functional.
A further assay deals with Ion channel NompC (Danio rerio, UniProt Q7T1G6). As to the kind of experiment: Fluorescence counterscreen assay for TRPML3 agonists: dose response cell-based high-throughput screening assay to identify agonists of the transient receptor potential channel N1 (TRPN1). [Related pubchem assays: 1526, 1424, 1448 ]. The format is functional. On the technique in general: Counterscreens check selectivity or assay interference.

Assay [10] is described as follows: viability of uninfected HEp-2 cells – cell-based, HTS, cytotoxicity control for RSV inhibitor project, dose response (AID 2410). It counts as functional. Particulars: human respiratory syncytial virus.
Another assay addresses Cytochrome P450 2C19 (Homo sapiens, UniProt P33261). As to the kind of experiment: qHTS Assay for Inhibitors and Substrates of Cytochrome P450 2C19. [Related pubchem assays: 410 ]. The format is ADME. Particulars: read-out: Potency. On the technique in general: In qHTS, concentration-response curves come from the screen itself.
In a further assay the target is Cytochrome P450 3A4 (Homo sapiens, UniProt P08684). Particulars: Potency.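 Also: confirmatory qHTS run detecting inhibitors and substrates of CYP3A4.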
The target of assay [11] is Melanin-concentrating hormone receptor 1 (Homo sapiens, UniProt Q99705). Kind of assay: Fluorescence-based counterscreen for antagonists of the G-protein coupled receptor 7 (GPR7): cell-based high throughput dose response assay to identify antagonists of the melanin-concentrating hormone receptor 1 (MCHR1). The format is functional.
In the next assay the test system is CHO. As to the kind of experiment: CHO cell viability loss, potency – luminescence, cytotoxicity control for TLR9-MyD88 binding inhibitor project, dose response (AID 588339).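 Also: CHO cells stably coexpressing TLR9 and MyD88 fusions from primary screen; compound exposure lasted 48 hours before viability readout.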 The format is functional, cell-based, hamster. Particulars: Cricetulus griseus.
A further assay deals with Paired box protein Pax-8 (Homo sapiens, UniProt Q06710). Kind of assay: PAX8 transcriptional activity inhibition in RMG-I – RMG-I cells, luciferase, cherry-pick, dose response (AID 687027).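 Also: luciferase reporter driven by Pax8 target thyroperoxidase promoter measured by SteadyGlo luminescence.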 The format is functional, cell-based.
The nature of assay [12]: general cell-killing toxicity readout – plate reader, dry powder samples, cytotoxicity control for PAX8 inhibitor project, dose response (AID 743021). It counts as functional, cell-based.
The next assay relates to INS1. As to the kind of experiment: INS-1E survival protection against cytokine death – cell-based, luminescence, retest, dose response (AID 449756).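 Also: cell death triggered by IL-1 beta plus TNF-alpha plus IFN-gamma mixture; protective hits raise ATP signal compared with cytokine alone wells.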 Particulars: Rattus norvegicus. The format is functional.
Assay [13] addresses SWI/SNF-related matrix-associated actin-dependent regulator of chromatin subfamily A member 2 (Homo sapiens, UniProt P51531). As to the kind of experiment: Luminescence-based cell-based high throughput dose response assay to identify activators of the function of SWI/SNF related, matrix associated, actin dependent regulator of chromatin, subfamily a, member 2 (SMARCA2, BRM). It counts as functional.

The nature of assay [14]: Counterscreen for activators of the function of SWI/SNF related, matrix associated, actin dependent regulator of chromatin, subfamily a, member 2 (SMARCA2, BRM): Luminescence-based cell-based high throughput dose response assay to identify non-selective compounds using the VP16 reporter assay. The format is functional.
A further assay has as its target Beta Lactamase (Pseudomonas aeruginosa, UniProt Q932Y6). As to the kind of experiment: BLA reporter interference, concentration series – BLA reporter cells, FRET fluorescence, artefact control for TLR9-MyD88 binding inhibitor project, dose response (AID 588341).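 Also: cell based assay in CHO-K1 cells stably expressing beta-lactamase.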 It counts as cell-based.
The target in assay [15] is Neurotensin receptor type 1 (Homo sapiens, UniProt P30989). The format is functional.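 Also: Image-based confirmatory dose-response assay measuring agonist activity at NTR1; NTR1-expressing U2OS osteosarcoma cells imaged for beta-arrestin GFP spot formation; agonist potency where compounds increase beta-arrestin recruitment.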
Assay [16] in a line: cytotoxicity toward MDA-MB-231 breast cancer cells – cell-based, CellTiter-Glo luminescence, cherry-pick, cytotoxicity control for RAD54 inhibitor project, dose response (AID 651692). It counts as functional.
The target of assay [17] is T3, DNA repair and recombination protein RAD54-like (Homo sapiens, UniProt Q92698).
T3 sequence (Q92698 whole entry): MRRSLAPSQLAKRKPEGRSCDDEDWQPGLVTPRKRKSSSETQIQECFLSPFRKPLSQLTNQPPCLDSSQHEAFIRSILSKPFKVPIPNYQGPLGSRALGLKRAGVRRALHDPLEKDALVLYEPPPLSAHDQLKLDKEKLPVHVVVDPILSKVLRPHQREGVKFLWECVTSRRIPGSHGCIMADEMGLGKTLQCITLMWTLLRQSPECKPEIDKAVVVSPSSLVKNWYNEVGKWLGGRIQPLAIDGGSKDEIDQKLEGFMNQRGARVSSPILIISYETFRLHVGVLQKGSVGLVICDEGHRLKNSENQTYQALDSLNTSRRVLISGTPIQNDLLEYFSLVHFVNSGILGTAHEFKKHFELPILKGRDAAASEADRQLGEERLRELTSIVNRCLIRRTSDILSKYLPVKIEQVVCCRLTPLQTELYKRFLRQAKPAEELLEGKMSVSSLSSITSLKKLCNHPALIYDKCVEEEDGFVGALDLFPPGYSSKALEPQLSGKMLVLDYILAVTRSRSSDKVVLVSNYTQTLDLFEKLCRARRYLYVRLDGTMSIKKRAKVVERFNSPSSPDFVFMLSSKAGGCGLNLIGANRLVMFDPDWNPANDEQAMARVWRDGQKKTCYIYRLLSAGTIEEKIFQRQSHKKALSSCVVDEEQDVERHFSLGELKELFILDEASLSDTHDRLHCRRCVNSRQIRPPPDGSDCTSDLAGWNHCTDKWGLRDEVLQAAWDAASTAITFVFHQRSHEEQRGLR
As to the kind of experiment: RAD54 Holliday junction migration blockers – biochemical, fluorescence, cherry-picked samples, dose series, confirmation (AID 651657). It counts as functional.

The subject of another assay is HeLa. As to the kind of experiment: viability loss in HeLa cells – cell-based, 24 h, cherry-picked samples, cytotoxicity control, dose response (AID 504726). The format is functional. Particulars: Homo sapiens.
Assay [18] addresses DNA dC->dU-editing enzyme APOBEC-3A (Homo sapiens, UniProt P31941). As to the kind of experiment: A3A deaminase inhibition for selectivity – biochemical, dose response (AID 504722). The format is functional.
The target of assay [19] is DNA dC->dU-editing enzyme APOBEC-3G (Homo sapiens, UniProt Q9HC16). Kind of assay: Dose Response confirmation of small molecule APOBEC3G DNA Deaminase Inhibitors via a fluorescence-based single-stranded DNA deaminase assay. [Related pubchem assays (depositor defined):AID493012, AID493028]. It counts as functional.

Active and inactive are the calls of the source. A value given as a limit tells only on which side of the number the result lay.

The IC50 is the point on the concentration scale where inhibition reaches its midpoint. As a reminder, the EC50 is the concentration needed to bring the measured effect to its halfway point. Broadly, the CC50 is the concentration that lowers cell viability or growth by half.

T2 sequence (Q00975 whole entry): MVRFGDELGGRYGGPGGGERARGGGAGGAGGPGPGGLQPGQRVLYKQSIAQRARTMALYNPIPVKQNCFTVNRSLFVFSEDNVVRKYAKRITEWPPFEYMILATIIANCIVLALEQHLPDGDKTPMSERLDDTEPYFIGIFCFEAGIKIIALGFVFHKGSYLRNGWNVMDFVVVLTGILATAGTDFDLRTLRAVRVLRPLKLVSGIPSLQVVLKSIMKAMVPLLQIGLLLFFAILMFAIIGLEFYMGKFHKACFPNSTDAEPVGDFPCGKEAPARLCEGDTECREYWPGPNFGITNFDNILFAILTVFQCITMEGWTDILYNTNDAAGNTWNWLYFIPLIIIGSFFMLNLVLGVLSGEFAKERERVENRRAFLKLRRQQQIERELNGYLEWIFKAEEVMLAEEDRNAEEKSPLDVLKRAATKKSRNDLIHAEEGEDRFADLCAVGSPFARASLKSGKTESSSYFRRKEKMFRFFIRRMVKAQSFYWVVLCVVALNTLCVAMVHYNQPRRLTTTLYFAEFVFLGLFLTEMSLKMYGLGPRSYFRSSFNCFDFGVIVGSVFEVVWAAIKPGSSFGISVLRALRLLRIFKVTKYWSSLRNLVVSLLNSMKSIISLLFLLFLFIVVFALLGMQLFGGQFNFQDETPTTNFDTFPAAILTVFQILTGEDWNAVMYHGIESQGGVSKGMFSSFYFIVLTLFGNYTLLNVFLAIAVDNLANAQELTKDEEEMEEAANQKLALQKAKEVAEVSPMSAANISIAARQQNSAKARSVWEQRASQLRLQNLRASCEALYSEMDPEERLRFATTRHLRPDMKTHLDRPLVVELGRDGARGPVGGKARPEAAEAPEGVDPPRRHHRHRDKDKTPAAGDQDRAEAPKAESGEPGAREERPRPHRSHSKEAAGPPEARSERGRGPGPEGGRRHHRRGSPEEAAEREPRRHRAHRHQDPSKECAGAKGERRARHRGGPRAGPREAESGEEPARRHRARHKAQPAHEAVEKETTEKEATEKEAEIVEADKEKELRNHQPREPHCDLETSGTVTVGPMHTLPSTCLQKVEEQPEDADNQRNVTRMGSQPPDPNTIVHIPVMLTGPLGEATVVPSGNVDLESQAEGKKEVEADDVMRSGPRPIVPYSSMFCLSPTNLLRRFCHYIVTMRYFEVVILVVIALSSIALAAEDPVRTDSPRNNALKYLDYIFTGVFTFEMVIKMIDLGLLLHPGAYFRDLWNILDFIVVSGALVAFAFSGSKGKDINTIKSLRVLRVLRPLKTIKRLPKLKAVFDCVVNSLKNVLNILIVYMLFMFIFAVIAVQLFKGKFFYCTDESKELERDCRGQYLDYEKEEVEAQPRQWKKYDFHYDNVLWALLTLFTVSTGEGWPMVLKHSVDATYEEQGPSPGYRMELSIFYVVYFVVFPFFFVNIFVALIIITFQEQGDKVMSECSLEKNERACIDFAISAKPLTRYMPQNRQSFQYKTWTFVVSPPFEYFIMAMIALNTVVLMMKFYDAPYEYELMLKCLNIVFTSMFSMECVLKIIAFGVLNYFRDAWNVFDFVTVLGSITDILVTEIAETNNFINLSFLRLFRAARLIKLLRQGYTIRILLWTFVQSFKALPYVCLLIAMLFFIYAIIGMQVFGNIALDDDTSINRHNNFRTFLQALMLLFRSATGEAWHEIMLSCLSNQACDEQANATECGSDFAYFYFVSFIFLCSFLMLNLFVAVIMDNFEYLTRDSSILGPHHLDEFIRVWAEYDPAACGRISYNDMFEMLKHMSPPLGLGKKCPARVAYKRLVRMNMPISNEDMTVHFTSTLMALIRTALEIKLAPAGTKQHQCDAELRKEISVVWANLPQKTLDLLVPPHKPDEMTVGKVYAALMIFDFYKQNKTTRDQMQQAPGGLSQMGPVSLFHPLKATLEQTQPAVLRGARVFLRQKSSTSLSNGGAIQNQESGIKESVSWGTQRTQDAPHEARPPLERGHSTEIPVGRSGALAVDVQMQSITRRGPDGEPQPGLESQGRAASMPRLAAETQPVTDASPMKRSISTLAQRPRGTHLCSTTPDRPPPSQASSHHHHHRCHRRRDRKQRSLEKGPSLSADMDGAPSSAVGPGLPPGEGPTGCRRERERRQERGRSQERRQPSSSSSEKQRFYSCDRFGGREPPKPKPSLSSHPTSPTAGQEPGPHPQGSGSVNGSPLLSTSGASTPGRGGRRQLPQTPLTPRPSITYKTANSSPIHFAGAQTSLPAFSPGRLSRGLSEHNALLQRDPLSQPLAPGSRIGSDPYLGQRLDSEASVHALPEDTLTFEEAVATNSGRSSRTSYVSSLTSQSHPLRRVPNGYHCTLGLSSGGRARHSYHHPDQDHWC
T2 sequence (Q02410 whole entry): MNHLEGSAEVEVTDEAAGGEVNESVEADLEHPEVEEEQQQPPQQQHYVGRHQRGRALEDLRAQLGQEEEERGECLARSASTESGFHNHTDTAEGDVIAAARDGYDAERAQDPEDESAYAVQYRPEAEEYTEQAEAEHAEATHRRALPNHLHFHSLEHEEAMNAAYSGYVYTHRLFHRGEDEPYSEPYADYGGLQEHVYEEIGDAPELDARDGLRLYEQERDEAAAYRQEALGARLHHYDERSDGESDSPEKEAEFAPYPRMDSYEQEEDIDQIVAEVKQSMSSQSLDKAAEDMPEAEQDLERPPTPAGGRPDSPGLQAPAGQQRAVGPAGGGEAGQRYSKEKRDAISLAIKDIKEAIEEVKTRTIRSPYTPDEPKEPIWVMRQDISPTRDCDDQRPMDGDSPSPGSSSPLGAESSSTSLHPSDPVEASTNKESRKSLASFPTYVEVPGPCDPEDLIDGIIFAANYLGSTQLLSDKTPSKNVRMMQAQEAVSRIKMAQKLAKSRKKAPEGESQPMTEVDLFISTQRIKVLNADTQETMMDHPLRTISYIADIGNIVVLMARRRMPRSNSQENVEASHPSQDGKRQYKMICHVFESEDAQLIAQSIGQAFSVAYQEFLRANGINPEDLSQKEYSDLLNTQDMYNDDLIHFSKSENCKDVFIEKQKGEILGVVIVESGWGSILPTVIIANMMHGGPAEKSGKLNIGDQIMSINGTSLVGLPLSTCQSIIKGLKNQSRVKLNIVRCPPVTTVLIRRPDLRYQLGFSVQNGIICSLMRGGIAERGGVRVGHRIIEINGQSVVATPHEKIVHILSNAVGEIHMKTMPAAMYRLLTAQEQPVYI
Chain of Eukaryotic translation initiation factor 4E (P63073 whole entry, the tested form may be a part): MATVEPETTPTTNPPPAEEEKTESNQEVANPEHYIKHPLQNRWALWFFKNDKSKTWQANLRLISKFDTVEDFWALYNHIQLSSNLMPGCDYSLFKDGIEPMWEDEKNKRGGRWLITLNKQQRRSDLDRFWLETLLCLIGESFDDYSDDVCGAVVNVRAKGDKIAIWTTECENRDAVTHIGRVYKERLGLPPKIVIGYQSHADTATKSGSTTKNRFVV
Chain of Cytochrome P450 2C9 (P11712 whole entry): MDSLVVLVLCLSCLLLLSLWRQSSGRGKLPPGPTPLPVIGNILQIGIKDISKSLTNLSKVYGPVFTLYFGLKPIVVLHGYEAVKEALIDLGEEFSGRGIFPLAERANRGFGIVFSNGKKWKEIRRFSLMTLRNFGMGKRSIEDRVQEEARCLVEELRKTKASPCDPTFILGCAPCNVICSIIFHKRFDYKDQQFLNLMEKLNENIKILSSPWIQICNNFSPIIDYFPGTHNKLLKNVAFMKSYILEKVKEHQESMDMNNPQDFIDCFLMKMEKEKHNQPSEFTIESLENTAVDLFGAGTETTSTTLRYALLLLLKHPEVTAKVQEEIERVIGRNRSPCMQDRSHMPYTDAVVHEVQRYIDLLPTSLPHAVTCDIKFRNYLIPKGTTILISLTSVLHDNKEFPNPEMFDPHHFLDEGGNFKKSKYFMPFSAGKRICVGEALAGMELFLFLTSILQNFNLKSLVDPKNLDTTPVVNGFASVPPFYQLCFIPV
Chain of NS3 (A3EZJ3 whole entry): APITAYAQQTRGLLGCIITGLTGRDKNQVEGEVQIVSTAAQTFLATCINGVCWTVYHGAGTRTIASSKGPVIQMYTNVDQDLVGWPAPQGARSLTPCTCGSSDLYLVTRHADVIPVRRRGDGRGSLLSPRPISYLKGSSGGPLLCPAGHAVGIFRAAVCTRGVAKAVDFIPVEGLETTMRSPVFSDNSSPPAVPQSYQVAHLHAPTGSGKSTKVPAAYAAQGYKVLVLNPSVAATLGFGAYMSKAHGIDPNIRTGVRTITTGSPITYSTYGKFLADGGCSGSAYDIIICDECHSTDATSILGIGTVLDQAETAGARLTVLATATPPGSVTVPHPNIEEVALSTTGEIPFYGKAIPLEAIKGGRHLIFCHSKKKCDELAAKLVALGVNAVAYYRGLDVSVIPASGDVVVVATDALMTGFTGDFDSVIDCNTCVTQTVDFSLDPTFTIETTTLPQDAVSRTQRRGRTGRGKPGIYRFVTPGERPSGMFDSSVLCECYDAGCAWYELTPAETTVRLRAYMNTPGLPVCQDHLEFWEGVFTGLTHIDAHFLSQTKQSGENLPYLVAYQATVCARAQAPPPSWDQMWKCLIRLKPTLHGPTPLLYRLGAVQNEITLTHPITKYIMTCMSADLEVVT
Chain of Melanin-concentrating hormone receptor 1 (Q99705 whole entry, the tested form may be a part): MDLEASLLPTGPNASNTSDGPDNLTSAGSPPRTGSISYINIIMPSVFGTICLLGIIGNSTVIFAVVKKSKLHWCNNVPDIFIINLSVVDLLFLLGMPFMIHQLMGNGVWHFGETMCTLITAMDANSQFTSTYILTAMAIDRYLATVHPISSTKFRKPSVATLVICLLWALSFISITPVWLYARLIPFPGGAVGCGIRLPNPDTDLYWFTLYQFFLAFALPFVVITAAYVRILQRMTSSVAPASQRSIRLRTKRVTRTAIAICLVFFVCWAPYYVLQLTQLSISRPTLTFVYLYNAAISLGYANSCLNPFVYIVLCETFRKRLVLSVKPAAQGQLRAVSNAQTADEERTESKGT
Chain of DNA dC->dU-editing enzyme APOBEC-3A (P31941 whole entry): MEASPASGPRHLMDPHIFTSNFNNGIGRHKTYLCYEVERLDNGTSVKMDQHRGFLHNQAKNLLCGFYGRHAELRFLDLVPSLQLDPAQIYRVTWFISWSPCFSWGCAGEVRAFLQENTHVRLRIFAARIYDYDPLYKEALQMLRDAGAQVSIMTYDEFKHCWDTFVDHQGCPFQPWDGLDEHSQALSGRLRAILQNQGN

As to `CCCCCCCCCCCCCCCC[n+]1ccn(CC(C)=O)c1`, the AC50 in assay [1] is 2.86 µM (active). For the same compound, the IC50 in [2] was 21.1 µM (not active); in [3], 10.1 µM (active); in [4], 4.25 µM (active).

For the compound `NC1=NC2(CCCCC2)n2c(nc3ccccc32)N1`, the EC50 in assay [5] was > 50 µM (active).

As to `O=c1ccc2cc3c4c(c2o1)CCCN4CCC3`, on ORF 73, the AC50 was 12.6 µM (active).

Take `Cc1ccc(-n2cccc2/C=C2\C(=N)N3N=C(c4ccco4)SC3=NC2=O)cc1`: the IC50 at NS3 is 5.31 µM (active); in assay [3] it was 50 µM (inactive); in [6] it was > 50 µM (inactive); in [7], 26 µM (active); in [8] it was 8.99 µM (active); in assay [9] it was 1.7 µM (active).

For `CC(=O)c1ccc(OCc2ccccc2)c(C)c1O`, at Cytochrome P450 2C9, the AC50 was 2 µM (inconclusive).

Consider `COc1ccc(OC)c(N(CC(=O)N2CCCCC2)S(=O)(=O)c2ccc(OC)c(OC)c2)c1`, for which the results for the EC50 at Mucolipin-3 and at Ion channel NompC were 1.67 µM (active) and 25.6 µM (not active), respectively.

`COC(=O)c1c(N(S(C)(=O)=O)S(C)(=O)=O)sc2c1CCN(c1ncc(C(F)(F)F)cc1Cl)C2`: the CC50 in assay [10] was 16.9 µM (active). Further, in [7], the 50% inhibitory concentration (IC50) is 29.2 µM (active).

Take `COc1ccc(OC2C=CC(C#Cc3ccc(C(C)(C)C)cc3)OC2CO)cc1` (configuration not stated): the AC50 at Cytochrome P450 2C19 is 2.51 µM (inconclusive); at Cytochrome P450 2C9 it was 0.398 µM (inconclusive); at Cytochrome P450 3A4 it was 3.98 µM (inconclusive).

With `COc1cccc(CC2(CO)CCCN(Cc3c(C)cc(C)cc3-n3cccn3)C2)c1` (configuration not stated), in [11], the IC50 is on record as 12.6 µM (not active).

`O=C(Nc1ccc(-c2nc3ccccc3[nH]2)cc1)c1ccccc1NS(=O)(=O)c1ccc(F)cc1`: the IC50 in [4] is > 50 µM (active).

Turning to `O=C(Nc1nc(-c2ccco2)c(-c2ccco2)s1)C1CCC1`, the IC50 against NS3 is 30.4 µM (not active).

For the compound `COc1ccc(Cn2cc3c(-c4ccc(F)cc4)nnc-3c3cc(OC)c(OC)cc32)cc1`, the IC50 with CHO is 11.9 µM (inactive); on Beta Lactamase, 5.58 µM (active). Further, the AC50 was 12.9 µM (active) on Paired box protein Pax-8; 29.5 µM (active) in [12]; 6.94 µM (active) with INS1; 15.3 µM (active) in [16]; 7.21 µM (active) in [17]. Besides, the EC50 was > 91.2 µM (inactive) in [13], > 91.2 µM (inactive) in assay [14] and 5.72 µM (active) in assay [15].

As for `O=S(=O)(Nc1ncccn1)c1ccc(NC(=S)Nc2cccc(Cl)c2)cc1`, in [5], the EC50 is > 50 µM (active).

Turning to `CC(Sc1ncccn1)C(=O)NNC(=O)c1cccc(Cl)c1` (configuration not stated), the AC50 in the assay on HeLa is 46.6 µM (active).

For the compound `Sc1nnc(-c2cccnc2)n1/N=C/C=C/c1ccccc1`, the results for the IC50 in assay [18] and in assay [19] were > 100 µM (inactive) and 2.33 µM (active), respectively.

The record behind these values is ChEMBL document CHEMBL1201862, “PubChem BioAssay data set” (2004).
